# According to patent publication US20230144436A1, “MUSCLE TARGETING COMPLEXES AND USES THEREOF FOR TREATING MYOTONIC DYSTROPHY” (Dyne Therapeutics, Inc., priority 2020, published 2023):
# Tested on: DMPK
# Test: DMPK expression in RD cells treated with free or transfected DMPK-targeting oligonucleotides
# Type: cell-based
# Details: free (gymnotic) or transfected, 3 days
# Description: The duration of treatment was 3 days. DMPK-targeting oligonucleotides were delivered to the cells as free oligonucleotides (gymnotic uptake, “free”) or with transfection reagent (“trans”).
# DMPK-targeting oligonucleotides (e.g., ASO) were tested in rhabdomyosarcoma (RD) cells for knockdown of DMPK transcript expression. RD cells were cultured in a growth medium of DMEM with glutamine, supplemented with 10% FBS and penicillin/streptomycin until nearly confluent. Cells were then seeded into a 96 well plate at 20K cells per well and were allowed to recover for 24 hours. Cells were then treated with free DMPK-targeting oligonucleotides or by transfection of the oligonucleotides using 0.3 μL per well of Lipofectamine MessengerMAX transfection reagent. After 3 days, total RNA was collected from cells, cDNA was synthesized and DPMK expression was measured by qPCR.
row,Substance,DMPK expression level relative to PBS-treated cells
1,"CCAUCUCGGCCGGAAUCCGC (chemistry not given here) [SEQ ID NO: 278, DMPK-targeting antisense oligonucleotide]",reduced
2,"CCCAGCGCCCACCAGUCACA (chemistry not given here) [SEQ ID NO: 320, DMPK-targeting antisense oligonucleotide]",reduced
3,"GCGUAGAAGGGCGUCUGCCC (chemistry not given here) [SEQ ID NO: 310, DMPK-targeting antisense oligonucleotide]",reduced

# Tested on: DMPK
# Test: Dose response of antisense oligonucleotides in DMPK knockdown in NHP myotubes
# Type: cell-based, non-human primate
# Details: not given
# Description: FIGS. 19A-19B depict non-limiting schematics showing the dose response of selected antisense oligonucleotides in DMPK knockdown in non-human primate (NHP) DM1 myotubes. Control DMPK-ASO was used as control.
# (§1) The antisense oligonucleotides listed in Table 11 were further assessed to identify oligos that are safe in vivo (e.g., as indicated by low immunogenicity as measured by cytokine induction), and further based on manufacturability and secondary structure considerations. Three antisense oligonucleotides from Table 11, […] (SEQ ID NO: 310, DMPK-ASO-1), […] (SEQ ID NO: 320, DMPK-ASO-2), and […] (SEQ ID NO: 278, DMPK-ASO-3) were selected. These oligonucleotides were then further evaluated for their ability to reduce DMPK expression in DM1 myotubes and NHP myotubes in a dose-responsive manner. The tool compound (control DMPK-ASO) was used as control.
row,Substance,DMPK knockdown in NHP myotubes
1,"CCAUCUCGGCCGGAAUCCGC (chemistry not given here) [SEQ ID NO: 278, DMPK-targeting antisense oligonucleotide]",dose-dependently reducing DMPK
2,"CCCAGCGCCCACCAGUCACA (chemistry not given here) [SEQ ID NO: 320, DMPK-targeting antisense oligonucleotide]",dose-dependently reducing DMPK
3,"GCGUAGAAGGGCGUCUGCCC (chemistry not given here) [SEQ ID NO: 310, DMPK-targeting antisense oligonucleotide]",dose-dependently reducing DMPK

# Tested on: C2C12 murine myotubes
# Test: not given
# Details: in vitro, phage display; cited from earlier work
row,Substance,binding to C2C12 cells
1,SKTFNTHPQSTP [12 amino acid muscle-targeting peptide identified by phage display],improved binding to C2C12 cells relative to the ASSLNIA

# Tested on: DMPK
# Test: Dose-responsive DMPK reduction in DM1 C15 myotubes (EC-50)
# Type: cell-based
# Details: DM1 C15 differentiated myotubes, transfection with Lipofectamine MessengerMax, 72 hours, 0.046-100 nM
# Description: Eighteen oligonucleotides from Example 7 were selected to be evaluated for their ability to reduce DMPK expression in a dose-responsive manner. DM1 C15 myoblasts were prepared as in Example 7 to yield differentiated myotubes in 96-well microplates. After seven days of differentiation, cells were transfected with individual oligonucleotides using Lipofectamine MessengerMax. Each oligonucleotide was tested in triplicate at concentrations of 0.046 nM, 0.137 nM, 0.412 nM, 1.235 nM, 3.704 nM, 11.11 nM, 33.33 nM, and 100 nM by 3-fold serial dilutions using 0.3 μL of Lipofectamine MessengerMax per well.
# Following addition of oligonucleotide, cells were incubated for 72 hours prior to harvesting for total RNA. cDNA was synthesized from the total RNA extracts and qPCR was performed to determine expression levels of DMPK using a commercially available Taqman probeset in technical quadruplicate. All qPCR data were analyzed using a traditional ΔΔCT method and were normalized to a plate-based negative control that comprised of cells treated with vehicle control (0.3 μL/well Lipofectamine MessengerMax without any oligonucleotide). Data for each oligonucleotide to was fit to sigmoidal curve in order to determine an effective concentration of each oligonucleotide that provided a half-maximal response (EC-50).
row,Substance,EC50
1,257 (CAUGGCAUACACCUGGCCCG; chemistry not given here) [compound 257],0.42 nM
2,260 (CGAAUGUCCGACAGUGUCUC; chemistry not given here) [compound 260],0.18 nM
3,270 (GGGCCUGGGACCUCACUGUC; chemistry not given here) [compound 270],0.07 nM
4,272 (CUCUGCCGCAGGGACAGCCG; chemistry not given here) [compound 272],0.42 nM
5,278 (CCAUCUCGGCCGGAAUCCGC; chemistry not given here) [compound 278],0.44 nM
6,280 (UUGCCAUAGGUCUCCGCCGU; chemistry not given here) [compound 280],0.37 nM
7,286 (GCUUCAUCUUCACUACCGCU; chemistry not given here) [compound 286],0.03 nM

# Same assay, conditions: DM1 C15 differentiated myotubes, transfection, 72 hours, 100 nM
row,Substance,Percent DMPK reduction at 100 nM
1,257 (CAUGGCAUACACCUGGCCCG; chemistry not given here) [compound 257],75.28%
2,260 (CGAAUGUCCGACAGUGUCUC; chemistry not given here) [compound 260],95.93%
3,270 (GGGCCUGGGACCUCACUGUC; chemistry not given here) [compound 270],90.58%
4,272 (CUCUGCCGCAGGGACAGCCG; chemistry not given here) [compound 272],93.66%
5,278 (CCAUCUCGGCCGGAAUCCGC; chemistry not given here) [compound 278],95.42%
6,280 (UUGCCAUAGGUCUCCGCCGU; chemistry not given here) [compound 280],93.70%
7,286 (GCUUCAUCUUCACUACCGCU; chemistry not given here) [compound 286],64.06%

# Tested on: DMPK
# Test: Dose response of antisense oligonucleotides in DMPK knockdown in human DM1 myotubes
# Type: cell-based
# Details: not given
# Description: FIGS. 18A-18C depict non-limiting schematics showing the dose response of selected antisense oligonucleotides in DMPK knockdown in human DM1 myotubes. ControlDMPK-ASO was used as control. […] Statistical analysis: One-way ANOVA with Tukey's HSD post-hoc test vs. control DMPK-ASO treatment; *p<0.05, **p<0.01, ***p<0.001, ****p<0.0001.
# as §1
row,Substance,DMPK knockdown in DM1 myotubes
1,"CCAUCUCGGCCGGAAUCCGC (chemistry not given here) [SEQ ID NO: 278, DMPK-targeting antisense oligonucleotide]",dose-dependently reducing DMPK
2,"CCCAGCGCCCACCAGUCACA (chemistry not given here) [SEQ ID NO: 320, DMPK-targeting antisense oligonucleotide]",dose-dependently reducing DMPK
3,"GCGUAGAAGGGCGUCUGCCC (chemistry not given here) [SEQ ID NO: 310, DMPK-targeting antisense oligonucleotide]",dose-dependently reducing DMPK

# Tested on: DMPK
# Test: DMPK knockdown by transfected antisense oligonucleotides in DM1 C15 myotubes at 0.5 nM and 50 nM
# Type: cell-based
# Details: 0.5 nM oligonucleotide, 72 hours, qPCR, relative to vehicle control
# Procedure, shortened: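 Seven-day-differentiated DM1 C15 myotubes transfected (Lipofectamine MessengerMax) with each oligonucleotide at 0.5 nM or 50 nM final, biological triplicates. After 72 h, DMPK mRNA quantified by qPCR, expressed relative to vehicle-only transfection set to 1.00.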
row,Substance,Percent DMPK Reduction
1,257 (CAUGGCAUACACCUGGCCCG; chemistry not given here) [compound 257],31.63%
2,260 (CGAAUGUCCGACAGUGUCUC; chemistry not given here) [compound 260],40.21%
3,270 (GGGCCUGGGACCUCACUGUC; chemistry not given here) [compound 270],37.19%
4,272 (CUCUGCCGCAGGGACAGCCG; chemistry not given here) [compound 272],37.09%
5,278 (CCAUCUCGGCCGGAAUCCGC; chemistry not given here) [compound 278],20.50%
6,280 (UUGCCAUAGGUCUCCGCCGU; chemistry not given here) [compound 280],36.30%
7,286 (GCUUCAUCUUCACUACCGCU; chemistry not given here) [compound 286],31.44%

# Same assay, conditions: 0.5 nM oligonucleotide, 72 hours, qPCR, relative to vehicle control = 1.00
row,Substance,Normalized DMPK Remaining
1,257 (CAUGGCAUACACCUGGCCCG; chemistry not given here) [compound 257],0.68
2,260 (CGAAUGUCCGACAGUGUCUC; chemistry not given here) [compound 260],0.60
3,270 (GGGCCUGGGACCUCACUGUC; chemistry not given here) [compound 270],0.63
4,272 (CUCUGCCGCAGGGACAGCCG; chemistry not given here) [compound 272],0.63
5,278 (CCAUCUCGGCCGGAAUCCGC; chemistry not given here) [compound 278],0.79
6,280 (UUGCCAUAGGUCUCCGCCGU; chemistry not given here) [compound 280],0.64
7,286 (GCUUCAUCUUCACUACCGCU; chemistry not given here) [compound 286],0.69

# Same assay, conditions: 50 nM oligonucleotide, 72 hours, qPCR, relative to vehicle control
row,Substance,Percent DMPK Reduction
1,257 (CAUGGCAUACACCUGGCCCG; chemistry not given here) [compound 257],74.03%
2,260 (CGAAUGUCCGACAGUGUCUC; chemistry not given here) [compound 260],64.42%
3,270 (GGGCCUGGGACCUCACUGUC; chemistry not given here) [compound 270],76.81%
4,272 (CUCUGCCGCAGGGACAGCCG; chemistry not given here) [compound 272],93.59%
5,278 (CCAUCUCGGCCGGAAUCCGC; chemistry not given here) [compound 278],59.76%
6,280 (UUGCCAUAGGUCUCCGCCGU; chemistry not given here) [compound 280],60.12%
7,286 (GCUUCAUCUUCACUACCGCU; chemistry not given here) [compound 286],51.78%

# Same assay, conditions: 50 nM oligonucleotide, 72 hours, qPCR, relative to vehicle control = 1.00
row,Substance,Normalized DMPK Remaining
1,257 (CAUGGCAUACACCUGGCCCG; chemistry not given here) [compound 257],0.26
2,260 (CGAAUGUCCGACAGUGUCUC; chemistry not given here) [compound 260],0.36
3,270 (GGGCCUGGGACCUCACUGUC; chemistry not given here) [compound 270],0.23
4,272 (CUCUGCCGCAGGGACAGCCG; chemistry not given here) [compound 272],0.06
5,278 (CCAUCUCGGCCGGAAUCCGC; chemistry not given here) [compound 278],0.40
6,280 (UUGCCAUAGGUCUCCGCCGU; chemistry not given here) [compound 280],0.40
7,286 (GCUUCAUCUUCACUACCGCU; chemistry not given here) [compound 286],0.48
